Assays:
Caspase-7 = target: T1, Caspase-7 (Homo sapiens, UniProt P55210); assay: Inhibitory activity against caspase-7
T1 sequence (P55210 whole entry): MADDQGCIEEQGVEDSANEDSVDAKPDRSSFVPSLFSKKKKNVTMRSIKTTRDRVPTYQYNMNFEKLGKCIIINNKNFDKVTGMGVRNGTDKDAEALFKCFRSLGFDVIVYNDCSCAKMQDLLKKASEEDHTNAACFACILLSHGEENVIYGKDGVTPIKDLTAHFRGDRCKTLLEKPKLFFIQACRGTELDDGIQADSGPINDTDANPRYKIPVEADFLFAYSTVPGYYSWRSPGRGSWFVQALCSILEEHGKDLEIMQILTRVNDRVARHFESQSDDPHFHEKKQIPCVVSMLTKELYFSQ

Caspase-1 = target: T2, Caspase-1 (Homo sapiens, UniProt P29466); assay: Inhibitory activity against caspase-1
T2 sequence (P29466 whole entry): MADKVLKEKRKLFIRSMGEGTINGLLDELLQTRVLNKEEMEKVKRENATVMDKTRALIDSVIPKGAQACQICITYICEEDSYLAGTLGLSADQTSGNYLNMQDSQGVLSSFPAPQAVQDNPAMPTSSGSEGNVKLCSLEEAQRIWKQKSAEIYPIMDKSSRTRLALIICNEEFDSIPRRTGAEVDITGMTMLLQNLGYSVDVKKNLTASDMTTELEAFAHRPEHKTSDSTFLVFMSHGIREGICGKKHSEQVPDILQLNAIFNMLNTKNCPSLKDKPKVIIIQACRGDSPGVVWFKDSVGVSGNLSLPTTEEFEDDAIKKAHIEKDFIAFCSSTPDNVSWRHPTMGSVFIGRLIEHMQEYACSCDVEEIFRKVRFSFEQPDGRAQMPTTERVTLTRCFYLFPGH

Caspase-8 = Caspase-8 (Homo sapiens, UniProt Q14790); assay: Inhibitory activity against caspase-8
Caspase-8, sequence (Q14790 217-374 limits assumed): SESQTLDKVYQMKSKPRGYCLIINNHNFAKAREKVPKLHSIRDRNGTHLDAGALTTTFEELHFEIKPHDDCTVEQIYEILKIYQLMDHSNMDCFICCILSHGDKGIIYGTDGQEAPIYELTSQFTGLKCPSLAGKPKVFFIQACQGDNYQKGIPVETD
Caspase-8, sequence (Q14790 385-479 limits assumed): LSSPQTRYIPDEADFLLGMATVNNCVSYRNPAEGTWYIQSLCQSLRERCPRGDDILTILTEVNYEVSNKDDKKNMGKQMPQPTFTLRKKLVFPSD

NT2 = assay: Inhibitory activity against NT2 cells; type: functional, cell-based; settings: Homo sapiens
Caspase-3 = target: T3, Caspase-3 (Homo sapiens, UniProt P42574); assay: Inhibitory activity against caspase-3
T3 sequence (P42574 whole entry): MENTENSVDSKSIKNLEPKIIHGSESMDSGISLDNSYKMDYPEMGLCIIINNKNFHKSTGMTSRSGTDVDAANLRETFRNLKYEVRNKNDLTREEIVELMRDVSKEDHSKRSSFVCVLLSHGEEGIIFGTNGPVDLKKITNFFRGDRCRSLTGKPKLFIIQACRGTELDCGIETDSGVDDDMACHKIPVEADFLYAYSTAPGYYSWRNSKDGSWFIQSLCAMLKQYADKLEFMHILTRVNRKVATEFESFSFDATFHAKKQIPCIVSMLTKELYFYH

SMILES	IC50 (Caspase-7) [µM]	IC50 (Caspase-1) [µM]	IC50 (Caspase-8) [µM]	IC50 (NT2) [µM]	IC50 (Caspase-3) [µM]
CC(C)[C@H](NC(=O)Cc1ccccc1)C(=O)N[C@@H](CC(=O)O)C(=O)CSCc1ccccc1	8.4	22	22.5	–	0.75
COc1ccc(S(C)(=O)=O)cc1CC(=O)N[C@H](C(=O)N[C@@H](CC(=O)O)C(=O)CSCc1c(F)cccc1Cl)C(C)C	0.12	1.6	0.49	1	0.005
CCOc1ccc(OCC(=O)O)cc1CC(=O)N[C@H](C(=O)N[C@@H](CC(=O)O)C(=O)CSCc1c(F)cccc1Cl)C(C)C	0.36	3.8	0.81	5	0.005
COc1ccc(OC)c(CC(=O)N[C@H](C(=O)N[C@@H](CC(=O)O)C(=O)CSCC(C)C)C(C)C)c1	1.8	2.6	7.8	32	0.13
CC(C)[C@H](NC(=O)[C@H](C)NC(=O)[C@H](CC(=O)O)NC(=O)c1ccccc1)C(=O)N[C@@H](CC(=O)O)C(=O)CCCc1ccccc1	0.0084	1.65	1.5	14	0.0018
COc1ccc(OC)c(CC(=O)N[C@H](C(=O)N[C@@H](CC(=O)O)C(=O)CSCc2c(F)cccc2Cl)C(C)C)c1	2.5	5	2.4	9	0.073
COc1ccccc1CC(=O)N[C@H](C(=O)N[C@@H](CC(=O)O)C(=O)CSCc1ccccc1)C(C)C	2.7	28	15.5	–	0.31
COc1ccc(C(C)=O)cc1CC(=O)N[C@H](C(=O)N[C@@H](CC(=O)O)C(=O)CSCc1ccccc1)C(C)C	0.13	5.9	2.9	2	0.01
COc1cccc(CC(=O)N[C@H](C(=O)N[C@@H](CC(=O)O)C(=O)CSCc2ccccc2)C(C)C)c1	3.1	14	14	60	0.21
COc1ccc(OC)c(CC(=O)N[C@H](C(=O)N[C@@H](CC(=O)O)C(=O)CSCc2ccccc2)C(C)C)c1	3.2	6	6.6	10	0.048
CC(C)[C@H](NC(=O)c1cc2cc(F)ccc2[nH]1)C(=O)N[C@@H](CC(=O)O)C(=O)CSCc1ccccc1	1.4	2.6	3.3	55	0.083

Other lines, results leading:

IC50 (Caspase-7) [µM]	IC50 (Caspase-1) [µM]	IC50 (Caspase-8) [µM]	IC50 (NT2) [µM]	IC50 (Caspase-3) [µM]	SMILES
0.087	0.19	0.13	> 100	–	CC(=O)N[C@@H](CC(=O)O)C(=O)N[C@@H](CCC(=O)O)C(=O)N[C@H](C(=O)N[C@H](C=O)CC(=O)O)C(C)C
> 10	1.8	2	19	0.063	COc1ccc(OC)c(CC(=O)N[C@H](C(=O)N[C@@H](CC(=O)O)C(=O)CSCC2CCCCC2)C(C)C)c1
1.5	0.86	8.7	63	0.14	CC(C)[C@H](NC(=O)c1cc(Br)cc(Br)c1)C(=O)N[C@@H](CC(=O)O)C(=O)CSCc1ccccc1
2.3	4.2	6.3	0.3	0.094	CCOc1ccc(OCC(=O)OC(C)C)cc1CC(=O)N[C@H](C(=O)N[C@@H](CC(=O)O)C(=O)CSCc1c(F)cccc1Cl)C(C)C
0.024	1.8	3.85	0.6	–	CCOc1ccc(/C=C/C(=O)OC)cc1CC(=O)N[C@H](C(=O)N[C@@H](CC(=O)O)C(=O)CSCc1c(F)cccc1Cl)C(C)C
3.1	3.1	2.3	9	0.06	COc1ccc(Br)cc1CC(=O)N[C@H](C(=O)N[C@@H](CC(=O)O)C(=O)CSCc1ccccc1)C(C)C
1.7	6.5	9.3	0.7	0.053	CCOc1ccc(OCC(=O)OC)cc1CC(=O)N[C@H](C(=O)N[C@@H](CC(=O)O)C(=O)CSCc1c(F)cccc1Cl)C(C)C

From ChEMBL document CHEMBL1147438, “Discovery of novel aspartyl ketone dipeptides as potent and selective caspase-3 inhibitors” (Bioorg Med Chem Lett, 2004)
